Test results published in patent publication US20240158348A1, “HERBICIDAL CYCLIC AMIDES N-SUBSTITUTED WITH A HALOALKYLSULFONYLANILIDE GROUP” (FMC Corporation, priority 2021, published 2024).

Tests used:
Assay type in all cases: in vivo
[1] = system: goosegrass (Eleusine indica); experiment: Test C preemergence, goosegrass; details: 0 is no effect, 100 is complete control
Method in brief: (§1)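 Plants grown in a sand and loam soil blend received the formulated test chemicals either as a preemergence soil-directed spray or postemergence at 2 to 10 cm height. After 10 or 12 greenhouse days, injury was assessed visually, with 100 meaning complete control.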

[2] = system: oat, wild (wild oat, Avena fatua); experiment: Test C preemergence, wild oat; details: 0 is no effect, 100 is complete control
Method in brief: as §1

[3] = system: wheat (Triticum aestivum); experiment: Test C preemergence, wheat; details: 0 is no effect, 100 is complete control
[4] = system: foxtail, giant (giant foxtail, Setaria faberi); experiment: Test C postemergence, giant foxtail; details: for Foxtail, Giant plant response rating: visual injury, 0 to 100 scale (0 no effect, 100 complete control); for Plant response rating (0 to 100 scale), Foxtail, Giant: 0 is no effect, 100 is complete control
[5] = system: goosegrass (Eleusine indica); experiment: Test C postemergence, goosegrass; details: for Goosegrass plant response rating: visual injury, 0 to 100 scale (0 no effect, 100 complete control); for Plant response rating (0 to 100 scale), Goosegrass: 0 is no effect, 100 is complete control
Method in brief: as §1

[6] = system: kochia (Bassia scoparia); experiment: Test C postemergence, kochia; details: for Kochia plant response rating: visual injury, 0 to 100 scale (0 no effect, 100 complete control); for Plant response rating (0 to 100 scale), Kochia: 0 is no effect, 100 is complete control
Method in brief: as §1

[7] = system: pigweed, palmer (palmer amaranth, Amaranthus palmeri); experiment: Test C postemergence, palmer amaranth; details: visual injury, 0 to 100 scale (0 no effect, 100 complete control)
Method in brief: as §1

| Compound | Plant response rating (0 to 100 scale), Goosegrass ([1]; 31 g ai/ha Preemergence) | Plant response rating (0 to 100 scale), Goosegrass ([1]; 125 g ai/ha Preemergence) | Plant response rating (0 to 100 scale), Oat, Wild ([2]; 31 g ai/ha Preemergence) | Plant response rating (0 to 100 scale), Oat, Wild ([2]; 125 g ai/ha Preemergence) | Plant response rating (0 to 100 scale), Wheat ([3]; 31 g ai/ha Preemergence) | Plant response rating (0 to 100 scale), Wheat ([3]; 125 g ai/ha Preemergence) | Foxtail, Giant plant response rating ([4]; 31 g ai/ha Postemergence) | Plant response rating (0 to 100 scale), Foxtail, Giant ([4]; 125 g ai/ha Postemergence) | Goosegrass plant response rating ([5]; 31 g ai/ha Postemergence) | Plant response rating (0 to 100 scale), Goosegrass ([5]; 125 g ai/ha Postemergence) | Kochia plant response rating ([6]; 31 g ai/ha Postemergence) | Plant response rating (0 to 100 scale), Kochia ([6]; 125 g ai/ha Postemergence) | Pigweed, Palmer plant response rating ([7]; 31 g ai/ha Postemergence) | Pigweed, Palmer plant response rating ([7]; 125 g ai/ha Postemergence) | Foxtail, Giant plant response rating ([4]; 125 g ai/ha Postemergence) | Goosegrass plant response rating ([5]; 125 g ai/ha Postemergence) | Kochia plant response rating ([6]; 125 g ai/ha Postemergence) |
| --- | --- | --- | --- | --- | --- | --- | --- | --- | --- | --- | --- | --- | --- | --- | --- | --- | --- |
| Cc1c(N2CCCC(OC3CCC3)C2=O)cc(N(COC(=O)C(C)(C)C)S(=O)(=O)C(F)(F)F)c(C)c1F (stereo not shown) [Compound 39] | 10 | 60 | 0 | 0 | 0 | 0 | 0 | 10 | 0 | 30 | 30 | 60 | 0 | 20 |  |  |  |
| COC(=O)N(c1cc(N2CCC(OC3CC3)C2=O)c(C)cc1Cl)S(=O)(=O)C(F)(F)F (stereo not shown) [Compound 40] | 100 | 100 | 10 | 90 | 60 | 100 | 50 | 90 | 50 | 90 | 70 | 90 | 30 | 90 |  |  |  |
| Cc1cc(C)c(N2CCC(OCC3CC3(F)F)C2=O)cc1NS(=O)(=O)C(F)(F)F (stereo not shown) [Compound 41] | 90 | 100 | 60 | 100 | 90 | 100 | 20 |  | 90 |  | 70 |  | 50 | 90 | 90 | 90 | 80 |
| Cc1cc(C)c(N2CCC(OCC3CCCO3)C2=O)cc1NS(=O)(=O)C(F)(F)F (stereo not shown) [Compound 42] | 50 | 100 | 0 | 30 | 30 | 90 | 20 |  | 40 |  | 10 |  | 50 | 70 | 90 | 90 | 60 |
| Cc1c(NS(=O)(=O)C(F)(F)F)cc(N2CCC(OC3CCC3)C2=O)c(C)c1C (stereo not shown) [Compound 45] | 100 | 100 | 80 | 90 | 60 | 100 | 30 |  | 70 |  | 70 |  | 70 | 90 | 80 | 90 | 100 |
| Cc1c(NS(=O)(=O)C(F)(F)F)cc(N2CCC(OC3CC3)C2=O)c(C)c1C (stereo not shown) [Compound 47] | 100 | 100 | 80 | 100 | 90 | 100 | 70 |  | 50 |  | 40 |  | 30 | 70 | 90 | 90 | 80 |
| Cc1c(N2CCC(OC3CCC3)C2=O)cc(N(C(=O)OCC(C)C)S(=O)(=O)C(F)(F)F)c(C)c1C (stereo not shown) [Compound 48] | 80 | 100 | 50 | 80 | 30 | 80 | 20 |  | 0 |  | 20 |  | 30 | 70 | 60 | 40 | 60 |
| Cc1c(N2CCC(OC3CC3)C2=O)cc(N(COC(=O)C(C)(C)C)S(=O)(=O)C(F)(F)F)c(C)c1C (stereo not shown) [Compound 49] | 60 | 90 | 60 | 90 | 30 | 90 | 60 |  | 20 |  | 40 |  | 10 | 50 | 90 | 80 | 60 |
| Cc1c(N2CCC(OC3CCC3)C2=O)cc(N(COC(=O)C(C)(C)C)S(=O)(=O)C(F)(F)F)c(C)c1C (stereo not shown) [Compound 51] | 0 | 90 | 20 | 50 | 10 | 60 | 0 |  | 0 |  | 30 |  | 10 | 60 | 40 | 20 | 70 |
| Cc1cc(C)c(N(COC(=O)C(C)(C)C)S(=O)(=O)C(F)(F)F)cc1N1CCC(OCC2CC2)C1=O (stereo not shown) [Compound 53] | 60 | 100 | 0 | 90 | 60 | 90 | 30 |  | 60 |  | 20 |  | 40 | 70 | 90 | 90 | 50 |
| Cc1cc(C)c(N(COC(=O)C(C)(C)C)S(=O)(=O)C(F)(F)F)cc1N1CCC(OCC2CC2(F)F)C1=O (stereo not shown) [Compound 54] | 20 | 100 | 0 | 80 | 0 | 80 | 30 |  | 60 |  | 30 |  | 0 | 50 | 70 | 90 | 50 |
